One may read the solubility as the dissolved amount per volume that the medium holds.

Values after ≈ are worked out from the molar mass of the structure shown.

A short description of this data set: Tazarotene solubility in water, glycerin, and 70% glycerin solution. The format is physicochemical.

Regarding `CCOC(=O)c1ccc(C#Cc2ccc3c(c2)C(C)(C)CCS3)nc1` [Tazarotene], the solubility was found to be 0.27 µg/mL (≈ 0.768 µM) (70% glycerin solution, aqueous with cosolvent or surfactant or cyclodextrin, 70% Glycerin, 5 °C); 0.68 µg/mL (≈ 1.93 µM) (70% glycerin solution, aqueous with cosolvent or surfactant or cyclodextrin, 70% Glycerin, 25 °C); 4.43 µg/mL (≈ 12.6 µM) (70% glycerin solution, aqueous with cosolvent or surfactant or cyclodextrin, 70% Glycerin, 40 °C); 72.6 µg/mL (≈ 207 µM) (glycerin, 5 °C, organic solvent or mixture); 34.7 µg/mL (≈ 98.7 µM) (glycerin, 25 °C, organic solvent or mixture); 527 µg/mL (≈ 1500 µM) (glycerin, 40 °C, organic solvent or mixture). The amount in solution (water, 5 °C) (solubility) came to 0.07 µg/mL (≈ 0.199 µM); the solubility (water, 25 °C) was 0.04 µg/mL (≈ 0.114 µM); the solubility (water, 40 °C) was found to be 1.7 µg/mL (≈ 4.84 µM). For the same compound, under “in words”, the “solubility of tazarotene in glycerin” value is reported as “low solubility”.
